{"source": "paper PMC7508748", "about": "“Active tyrosine phenol-lyase aggregates induced by terminally attached functional peptides in Escherichia coli” (Journal of Industrial Microbiology & Biotechnology, 2020)", "experiment_in_all_cases": "Lineweaver-Burk, initial rates", "type_in_all_cases": "biochemical", "conditions_in_all_cases": "20 °C, PLP 30 µM, 0.1-6 mM L-DOPA", "key": {"[1]": {"test_system": "TPL-ELP10"}, "[2]": {"test_system": "TPL-GFIL16"}, "[3]": {"test_system": "T1, TPL", "T1 construct": "6xHis tag kept, pET28a, E. coli BL21(DE3) host, His-Trap purified; 52 kDa; tetramer"}, "[4]": {"test_system": "TPL-EAK16"}, "[5]": {"test_system": "TPL-DKL6"}, "[6]": {"test_system": "TPL-18A", "text": "Lineweaver-Burk, initial rates on TPL-18A | The Vmax of TPL-DKL6, TPL-ELP10, TPL-EAK16, TPL-18A, and TPL-GFIL16 was higher"}}}
{"smiles": "N[C@@H](Cc1ccc(O)c(O)c1)C(=O)O", "note": "[L-DOPA]", "values": [{"measurement": "Km", "setting": "[1]", "value": "2680 ± 129", "unit": "µM"}, {"measurement": "Km", "setting": "[2]", "value": "2220 ± 14", "unit": "µM"}, {"measurement": "Km", "setting": "[3]", "value": 2190, "unit": "µM"}, {"measurement": "Km", "setting": "[4]", "value": "2360 ± 26", "unit": "µM"}, {"measurement": "Km", "setting": "[5]", "value": "2320 ± 504", "unit": "µM"}, {"measurement": "Km", "setting": "[6]", "value": "2180 ± 356", "unit": "µM"}]}
